Assays:
5-HT2A receptors = target: T1, 5-HT2A receptors (Rattus norvegicus, UniProt P14842); settings: Xenopus oocytes; cited from earlier work
T1 construct: host or cells: Xenopus oocytes (transient)

[1] = cited from earlier work
5-HT2B = 5-HT2B (Homo sapiens, UniProt P41595); settings: Ca2+ mobilization; cited from earlier work
5-HT2A [2] = target: T2, 5-HT2A (Homo sapiens, UniProt P28223); settings: [125I]-DOI competition binding; cited from earlier work
5-HT2A [3] = target: T2, 5-HT2A; settings: Ca2+ mobilization; cited from earlier work
rat 5-HT2A receptors = rat 5-HT2A receptors (Rattus norvegicus, UniProt P14842); settings: [125I]-DOI competition binding; cited from earlier work
Sequence of rat 5-HT2A receptors (P14842 whole entry): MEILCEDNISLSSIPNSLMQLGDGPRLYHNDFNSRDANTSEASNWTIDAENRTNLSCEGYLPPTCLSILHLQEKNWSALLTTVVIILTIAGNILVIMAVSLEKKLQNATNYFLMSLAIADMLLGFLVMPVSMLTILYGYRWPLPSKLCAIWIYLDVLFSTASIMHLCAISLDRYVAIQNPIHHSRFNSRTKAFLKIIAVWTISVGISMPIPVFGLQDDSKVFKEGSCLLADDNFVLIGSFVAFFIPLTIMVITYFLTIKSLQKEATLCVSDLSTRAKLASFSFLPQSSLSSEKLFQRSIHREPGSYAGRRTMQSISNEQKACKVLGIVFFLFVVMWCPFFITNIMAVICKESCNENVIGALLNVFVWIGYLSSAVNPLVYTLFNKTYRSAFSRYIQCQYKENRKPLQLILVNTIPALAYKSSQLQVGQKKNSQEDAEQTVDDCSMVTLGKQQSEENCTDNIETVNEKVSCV

5-HT2A [4] = target: T2, 5-HT2A; settings: cited from earlier work
human Nav1.1 and Navβ1 = human Nav1.1 and Navβ1 (Homo sapiens, UniProt P35498); assay: cell-based

T2 sequence (P28223 whole entry): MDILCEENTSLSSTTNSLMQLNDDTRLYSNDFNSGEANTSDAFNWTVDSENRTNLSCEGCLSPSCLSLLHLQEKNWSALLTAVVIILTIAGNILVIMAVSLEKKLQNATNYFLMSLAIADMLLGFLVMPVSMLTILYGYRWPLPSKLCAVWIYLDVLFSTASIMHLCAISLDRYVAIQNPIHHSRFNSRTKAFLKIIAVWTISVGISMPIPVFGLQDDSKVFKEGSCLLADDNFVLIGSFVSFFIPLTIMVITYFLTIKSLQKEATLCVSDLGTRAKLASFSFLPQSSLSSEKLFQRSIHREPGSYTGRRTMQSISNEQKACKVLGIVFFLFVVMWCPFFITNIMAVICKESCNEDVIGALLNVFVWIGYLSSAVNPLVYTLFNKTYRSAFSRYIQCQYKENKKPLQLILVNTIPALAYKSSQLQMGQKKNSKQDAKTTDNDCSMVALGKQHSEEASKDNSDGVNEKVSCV
Sequence of 5-HT2B (P41595 whole entry): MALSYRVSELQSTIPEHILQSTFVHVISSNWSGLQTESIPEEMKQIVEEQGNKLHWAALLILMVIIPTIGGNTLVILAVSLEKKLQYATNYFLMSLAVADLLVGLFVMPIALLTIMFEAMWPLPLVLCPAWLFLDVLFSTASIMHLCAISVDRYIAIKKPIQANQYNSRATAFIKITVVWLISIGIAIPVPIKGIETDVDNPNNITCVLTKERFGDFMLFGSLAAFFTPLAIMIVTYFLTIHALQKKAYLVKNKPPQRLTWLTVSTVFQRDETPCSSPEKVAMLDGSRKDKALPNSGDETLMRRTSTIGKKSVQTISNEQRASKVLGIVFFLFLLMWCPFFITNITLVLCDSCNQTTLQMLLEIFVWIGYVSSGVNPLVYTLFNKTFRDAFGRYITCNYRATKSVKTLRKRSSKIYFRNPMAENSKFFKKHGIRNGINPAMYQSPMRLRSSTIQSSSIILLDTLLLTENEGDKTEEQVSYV
T1 sequence (P14842 whole entry): as the sequence (P14842 whole entry) above

In the case of COc1cc(CCN)c(OC)cc1Br [2C-B], the “functional activity in 5-HT2A-mediated inward current recordings” value (5-HT2A receptors) is listed as “antagonist”, the “oral activity (dose)” value [1] is listed as 12 to 24 mg and the EC50 (5-HT2B) is listed as 57 nM. For the same molecule, the Ki (5-HT2A [2]) was 0.88 nM, the EC50 (5-HT2A [3]) was 2.1 nM and the Ki (rat 5-HT2A receptors) was 0.66 nM. For the same molecule, the “functional activity at the 5-HT2A receptor” value (5-HT2A [4]) was “partial agonist”.

With NC1=N[C@H](O)[C@H]2[C@H]3O[C@]4(O)O[C@@H]([C@@H](O)[C@@]2(N1)[C@@H]4O)[C@]3(O)CO [TTX, Tetrodotoxin, reference compound] the “Normalized Peak INa Inhibition” value (human Nav1.1 and Navβ1) was 0.870 ± 0.02, the “Peak INa Density” value (human Nav1.1 and Navβ1) was −56.3 ± 9.4 pA/pF and the “Peak INa Density @ −20 mV” value (human Nav1.1 and Navβ1) was −15.84±2.16 pA/pF. For the same molecule, the “reduction of baseline peak INa” value (human Nav1.1 and Navβ1) was 87±2%.
